Earlier results in patent publication US8097743B2, “Process for manufacture of blocked mercaptosilane coupling agents” (Momentive Performance Materials Inc., priority 2002, dated 2012).

Conditions: cited from earlier work

SMILES	Miscibility with water (classification) (below 18.7° C.)	Solubility in water (classification)
CCN(CC)CC [TEA, triethylamine]	completely miscible	
CCCN(CCC)CCC [TNPA, tri-n-propylamine]		very slightly soluble
